Assay results taken from patent US20250145589A1, “PYRIDINE DERIVATIVE AND USE THEREOF” (SICHUAN HUIYU PHARMACEUTICAL CO., LTD., priority 2021, published 2025).
Where two headings read alike, the source gives them in different places.

Assays:
[1] = test system: NCI-H358 cells (KRAS G12C mutant); assay: NCI-H358 cell proliferation inhibition (CellTiter-Glo); assay type: cell-based; settings: Homo sapiens, NCI-H358, 72 h; H358 cells (G12C mutation), 3 days, Table 6; read-out: NCI-H358 (IC50)
Description: The CellTiter-Glo®, assay was used to detect the number of viable cells, in order to evaluate the anti-proliferation efficacy of compounds. […] The compounds were serially diluted 5-fold in DMSO to obtain 8 concentrations, and then further diluted with RPMI-640 (10% FBS) cell culture medium to obtain the working solutions (5′), 20 μL of each working solution was added to the cell culture supernatant in each well, and the plate was further incubated for 3 days at 37° C. with 5% CO2. The plate was then equilibrated with CellTiter-Glo® reagent at room temperature (25° C.) for 10-30 minutes. After aspirating 50 μL of the medium, 50 μL of CellTiter-Glo® reagent was added. The cells were thoroughly mixed with the CellTiter-Glo® reagent using a microplate shaker for 2 minutes, and then incubated at room temperature for 10 minutes. The 96-well plate was placed in a multi-mode microplate reader to record the luminescence values (RLU). The inhibition rate was calculated through the following equation: [formula] Data were analyzed using GraphPad Prism for IC50 values (Note: The negative control refers to the group without inhibitor).

PI3Kα = PI3Kα (Homo sapiens (Human), UniProt P42336); assay: Inhibition of PI3Kα efficacy assay (ADP-Glo kinase assay); assay type: biochemical; settings: read-out: PI3Kα inhibitory activity (IC50)
Chain of PI3Kα (P42336 whole entry): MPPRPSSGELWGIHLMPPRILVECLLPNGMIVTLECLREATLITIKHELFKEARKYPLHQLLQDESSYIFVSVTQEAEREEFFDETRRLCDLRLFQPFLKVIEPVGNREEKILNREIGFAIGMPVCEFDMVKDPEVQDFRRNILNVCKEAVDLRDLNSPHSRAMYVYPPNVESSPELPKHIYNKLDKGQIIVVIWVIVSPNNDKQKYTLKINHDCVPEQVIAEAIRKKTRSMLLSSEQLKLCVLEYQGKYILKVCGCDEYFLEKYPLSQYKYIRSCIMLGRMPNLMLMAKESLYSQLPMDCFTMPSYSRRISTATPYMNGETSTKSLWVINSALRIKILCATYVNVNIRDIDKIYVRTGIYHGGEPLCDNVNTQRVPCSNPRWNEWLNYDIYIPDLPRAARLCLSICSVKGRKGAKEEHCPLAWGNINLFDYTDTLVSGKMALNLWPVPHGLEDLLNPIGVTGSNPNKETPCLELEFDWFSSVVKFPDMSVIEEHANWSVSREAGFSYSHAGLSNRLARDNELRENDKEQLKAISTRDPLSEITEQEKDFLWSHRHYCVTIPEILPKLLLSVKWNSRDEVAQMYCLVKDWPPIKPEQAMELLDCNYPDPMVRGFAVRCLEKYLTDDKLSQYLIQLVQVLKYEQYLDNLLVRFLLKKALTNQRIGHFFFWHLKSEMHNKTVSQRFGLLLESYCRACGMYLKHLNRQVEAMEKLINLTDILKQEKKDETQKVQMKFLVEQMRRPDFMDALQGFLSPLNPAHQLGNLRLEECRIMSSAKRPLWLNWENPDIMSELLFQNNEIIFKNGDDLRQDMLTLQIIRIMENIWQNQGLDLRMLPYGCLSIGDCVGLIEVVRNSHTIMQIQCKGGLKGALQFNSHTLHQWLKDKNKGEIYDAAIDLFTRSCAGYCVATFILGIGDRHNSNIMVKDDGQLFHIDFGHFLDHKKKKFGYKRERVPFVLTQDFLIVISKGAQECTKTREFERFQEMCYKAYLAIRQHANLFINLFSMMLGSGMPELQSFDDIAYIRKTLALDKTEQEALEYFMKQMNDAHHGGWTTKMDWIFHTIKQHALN
Chain of PI3Kα (P27986 whole entry partner): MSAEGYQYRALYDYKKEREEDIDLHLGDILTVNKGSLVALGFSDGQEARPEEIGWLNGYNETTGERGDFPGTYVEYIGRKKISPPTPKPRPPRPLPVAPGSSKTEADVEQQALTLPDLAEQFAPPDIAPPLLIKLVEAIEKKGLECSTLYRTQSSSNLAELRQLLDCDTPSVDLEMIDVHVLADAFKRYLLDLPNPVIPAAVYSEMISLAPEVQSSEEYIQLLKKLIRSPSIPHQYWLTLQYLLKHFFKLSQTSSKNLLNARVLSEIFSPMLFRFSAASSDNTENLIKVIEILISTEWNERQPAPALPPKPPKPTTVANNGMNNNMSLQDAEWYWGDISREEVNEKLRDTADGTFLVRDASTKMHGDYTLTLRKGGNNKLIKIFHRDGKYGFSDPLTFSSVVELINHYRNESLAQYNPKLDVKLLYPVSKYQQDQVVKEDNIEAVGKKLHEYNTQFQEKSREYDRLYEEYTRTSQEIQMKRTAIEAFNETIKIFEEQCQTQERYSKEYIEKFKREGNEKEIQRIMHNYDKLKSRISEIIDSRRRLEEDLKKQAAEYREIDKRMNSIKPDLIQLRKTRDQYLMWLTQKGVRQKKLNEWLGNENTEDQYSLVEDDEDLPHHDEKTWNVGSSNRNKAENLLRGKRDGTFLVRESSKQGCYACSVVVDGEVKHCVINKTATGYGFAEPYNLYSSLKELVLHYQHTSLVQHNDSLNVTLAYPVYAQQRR
Description: Inhibition of PI3Kα Efficacy assay The ADP-Glo™ kinase assay was used to assess the inhibition of PI3Kα with our compounds. The utilized proteins and assay reagents were obtained from the ADP-Glo™ Kinase Assay Kit (Promega). Initially, a 2 mM stock solution of the test compound (dissolved in DMSO) was serially diluted in five-fold concentrations using DMSO to obtain eight working solutions 1 (200′). […] Subsequently, 2 μL of 2.5×PI and ATP solution mixture were added to each well, mixed, and incubated at RT for 60 minutes. Then, 5 μL of ADP-Glo (containing 10 mM MgCl2) reagent was added to each well, mixed, and incubated at RT for 40 minutes. Finally, 10 μL of the Kinase Detection Reagent was added to each well, mixed, and incubated at RT for 40 minutes. […] Data were analyzed using GraphPad Prism with log(inhibitor) vs. response—Variable Slope(four parameters) fitting calculations for […]. (Note: The negative control refers to the group without inhibitor, and the blank control refers to the group without enzyme.) The data were presented in Tables 1 to 4.

Structure (SMILES)	IC50 [1] [nM]	IC50 (PI3Kα; Table 2) [nM]	IC50 (PI3Kα; Table 4) [nM]
COc1ncc(-c2ccc3ncnc(N4CCC5(CN(C(=O)/C=C/n6ccnn6)C5)C4)c3c2)cc1NS(=O)(=O)c1ccc(F)cc1F [Example 61, (E)-N-(5-(4-(2-(3-(1H-1,2,3-triazol-1-yl)acryloyl)-2,6-diazaspiro [3.4]octan-6-yl)quinazolin-6-yl)-2-methoxy-pyridin-3-yl)-2,4-difluoro-benzene-sulfonamide]	292	5.2	
C=C(F)C(=O)N1CCN(c2ncnc3ccc(-c4cnc(OC)c(NS(=O)(=O)c5c(F)cccc5F)c4)cc23)C[C@@H]1CC#N [Example 115, (S)-N-(5-(4-(3-(cyanomethyl)-4-(2-fluoroacryloyl)piperazin-1-yl)quinazolin-6-yl)-2-methoxypyridin-3-yl)-2,6-difluorobenzenesulfonamide]	46.5	1.9	
CC(=O)/C=C/C(=O)N1CCN(c2ncnc3ccc(-c4cnc(OC5CC5)c(NS(=O)(=O)c5ccc(F)cc5F)c4)cc23)CC1 [Example 110, (E)-N-(2-cyclopropoxy-5-(4-(4-(4-oxopent-2-enoyl)piperazin-1-yl)quinazolin-6-yl)pyridin-3-yl)-2,4-difluorobenzenesulfonamide]	155	3.5	
COc1ncc(-c2ccc3ncnc(N4CCN(C(=O)C5=CC(=O)CCC5)CC4)c3c2)cc1NS(=O)(=O)c1c(F)cccc1F [Example 54, 2,6-difluoro-N-(2-methoxy-5-(4-(4-(3-oxocyclohex-1-ene-1-carbonyl)piperazin-1-yl)quinazolin-6-yl)pyridin-3-yl) benzenesulfonamide]	10.4	2.5	
CC(=O)/C=C/C(=O)N1CC2(CCN(c3ncnc4ccc(-c5cnc(Cl)c(NS(=O)(=O)c6c(F)cccc6F)c5)cc34)C2)C1 [Example 86, (E)-N-(2-chloro-5-(4-(2-(4-oxopent-2-enoyl)-2,6-diazaspiro[3.4]octan-6-yl)quinazolin-6-yl)pyridin-3-yl)-2,6-difluorobenzenesulfonamide]	271	0.31	
CC(=O)/C=C/C(=O)N1CC2(CCN(c3ncnc4ccc(-c5cnc(Cl)c(NS(=O)(=O)c6c(F)cccc6F)c5)cc34)CC2)C1 [Example 87, (E)-N-(2-chloro-5-(4-(2-(4-oxopent-2-enoyl)-2,7-diazaspiro[3.5]nonan-7-yl)quinazolin-6-yl)pyridin-3-yl)-2,6-difluorobenzenesulfonamide]	131	2.4	
C=CC(=O)N1CCN(c2ncnc3ccc(-c4cnc(OC)c(NS(=O)(=O)c5c(F)cc(F)cc5F)c4)cc23)CC1 [Example 100, N-(5-(4-(4-acryloylpiperazin-1-yl)quinazolin-6-yl)-2-methoxypyridin-3-yl)-2,4,6-trifluorobenzenesulfonamide]	155	0.54	
C=CC(=O)N1CCC(Nc2ncnc3ccc(-c4cnc(OC)c(NS(=O)(=O)c5ccc(F)cc5F)c4)cc23)C1 (centres unmarked) [Example 147, N-(5-(4-((1-acryloylpyrrolidin-3-yl)amino)quinazolin-6-yl)-2-methoxypyridin-3-yl)-2,4-difluorobenzenesulfonamide]	790		1.6
C=C(F)C(=O)N1C2CCC1CN(c1ncnc3ccc(-c4cnc(OC)c(NS(=O)(=O)c5c(F)cc(F)cc5F)c4)cc13)C2 [Example 156, 2,4,6-trifluoro-N-(5-(4-(8-(2-fluoroacryloyl)-3,8-diazabicyclo[3.2.1]octan-3-yl)quinazolin-6-yl)-2-methoxypyridin-3-yl)benzenesulfonamide]	29.7		0.5
COc1ncc(-c2ccc3ncnc(N4CC5CCC(C4)N5C(=O)/C=C/C(C)=O)c3c2)cc1NS(=O)(=O)c1ccccc1F [Example 151, 2-fluoro-N-(2-methoxy-5-(4-(8-((E)-4-oxopent-2-enoyl)-3,8-diazabicyclo[3.2.1]octan-3-yl)quinazolin-6-yl)pyridin-3-yl)benzenesulfonamide]	80.3		5.9
